Results on twelve molecules are retold here after patent US20260317324A1, “BIFUNCTIONAL COMPOUNDS FOR DEGRADING BRAF VIA UBIQUITIN PROTEOSOME PATHWAY” (Nurix Therapeutics, Inc., priority 2023, published 2026).

The target of the assay is T1, BRAF V600E (Homo sapiens, UniProt P15056, V600E).
T1 construct: endogenous C-terminal HiBiT fusion tag on BRAF V600E allele; endogenous in cells; host or cells: A375 clone 1F10 (CRISPR-Cas9 knock-in of the HiBiT tag; parental A375 from ATCC)
The assay is described as follows: BRAF HiBiT degradation assay, C-terminal HiBiT-tagged BRAF V600E A375 cells (clone 1F10), Nano-Glo HiBiT Lytic assay. Particulars: A375 (BRAF V600E); for DC50: DC50 at 50%: fitted conc. at Y=50; for Dmax: A-375, percentage protein degraded at maximal compound effect relative to DMSO. Format: cell-based. An excerpt: An A375 cell line expressing a homozygous V600E mutation was purchased from ATCC (Manassas, VA, USA). An A375 clone 1F10 cell line with an endogenous C-terminal HiBiT fusion tag on BRAF V600E allele was generated internally using CRISPR-Cas9 technology and cultured in DMEM, high glucose supplemented with 10% FBS and 1× GlutaMAX. A HCT-116 BRAF−/− cell line overexpressing the C-terminal HiBiT-tagged G466V, G469A, and D594G mutants were generated by lentiviral transduction, externally at Biosettia Inc (San Diego, CA, USA). The stably transfected cells were cultured in RPMI media supplemented with 10% FBS, 1× GlutaMAX, and 0.25 μg/ml puromycin. DMEM medium, RPMI 1640 medium, GlutaMAX, fetal bovine serum (FBS), and puromycin were purchased from Gibco (Grand Island, NY, USA). HCT-116 BRAF−/− cells were purchased from Horizon Discovery (Waterbeach, UK).
The C-terminal HiBiT tagged BRAF A375 cells (monoclonal cell line, cell clone 1F10) were seeded at a density of 10,000 cells/well in 30 μL media (DMEM, high glucose supplemented with 10% FBS and 1× GlutaMAX) in white opaque 384-well plates (Corning #3570) from column 1 to column 23. The wildtype A375 cells were seeded in column 24 at the same cell density in 30 μL media. Cells were incubated at 37° C. with 5% CO2 for 24 h.
Intermediate compound dilution series (5-point, ranging from 5 mM to 0.5 μM, 10-fold dilutions in DMSO) were prepared in a source plate (Beckman Coulter cat. no. 001-16128). Final compound dilution series (11-point, ranging from 1 μM to 0.01 nM, half-log dilutions in DMSO) were stamped into the assay plate (Corning #3570, column 1-11 and 12-22) using the Echo Acoustic Liquid Handler (Beckman Coulter). Each compound was plated in duplicate, and the total volume of compound DMSO solution was 60 nL/well (0.2% final DMSO concentration). DMSO was included in wells A23-L23 and A24-L24. The DMSO-treated HiBiT-tagged samples served as Negative Control (NC) and the DMSO-treated wildtype samples served as Background Control (BC) for the HiBiT assay.
HiBiT signal was measured by a Nano-Glo HiBiT Lytic assay (Promega cat. no. N3050). HiBiT lytic detection reagent (Nano-Glo HiBiT Lytic Buffer with 1:50 Nano-Glo HiBiT Lytic Substrate and 1:100 LgBiT Protein, 40 μL) was added using Bravo. The mixture was incubated at room temperature, in the dark, and with gentle shaking for 10 min. Luminesce units (LU) were read on an EnVision plate reader 2105 (Perkin Elmer).
Percent protein remaining and viability remaining per sample were calculated as follows: […]
% Protein remaining values were plotted as a function of compound concentration. XC50 (DC50) values were determined by fitting curves using the following equation:
For the HiBiT degradation assay, the key parameters reported include: • The dose of compound that produces 50% degradation (DC50 at 50%): • DC50 at 50%: the Fitted X value (Conc.) at Y=50 (response) • Observed Dmax (Obs. Dmax) is the percentage protein degraded at maximal compound effect relative to DMSO-treated control: […]
(In general: The HiBiT peptide binds its large partner to form an active luciferase.)

The structures appear in SMILES notation. A value given as a limit tells only on which side of the number the result lay.

T1 sequence (P15056 whole entry V600E, the tested form may be a part): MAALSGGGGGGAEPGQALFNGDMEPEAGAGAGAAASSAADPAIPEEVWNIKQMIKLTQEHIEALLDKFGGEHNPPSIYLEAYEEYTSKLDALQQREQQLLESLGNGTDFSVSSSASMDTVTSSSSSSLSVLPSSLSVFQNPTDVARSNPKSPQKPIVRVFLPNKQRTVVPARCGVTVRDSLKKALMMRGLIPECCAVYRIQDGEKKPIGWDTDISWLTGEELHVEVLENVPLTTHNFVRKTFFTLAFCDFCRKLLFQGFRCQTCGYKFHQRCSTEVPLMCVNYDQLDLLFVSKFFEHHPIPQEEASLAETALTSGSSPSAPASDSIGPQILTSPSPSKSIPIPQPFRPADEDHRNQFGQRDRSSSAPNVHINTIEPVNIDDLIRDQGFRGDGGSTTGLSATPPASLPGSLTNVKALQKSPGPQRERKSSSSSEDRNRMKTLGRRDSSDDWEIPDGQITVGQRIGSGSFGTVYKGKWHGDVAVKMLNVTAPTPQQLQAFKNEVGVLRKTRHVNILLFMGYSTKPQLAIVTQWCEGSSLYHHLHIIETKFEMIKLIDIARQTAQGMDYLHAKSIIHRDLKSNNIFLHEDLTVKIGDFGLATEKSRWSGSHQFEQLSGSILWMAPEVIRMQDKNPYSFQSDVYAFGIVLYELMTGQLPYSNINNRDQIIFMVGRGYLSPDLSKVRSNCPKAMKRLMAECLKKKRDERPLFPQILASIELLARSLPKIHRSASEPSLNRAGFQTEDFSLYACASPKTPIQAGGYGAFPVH

For orientation: DC50 means the midpoint of the concentration-degradation curve. Low values mean a more potent degrader, high ones a less potent degrader. The term Dmax denotes the greatest extent of degradation seen. A higher Dmax goes with a fuller loss of target. `CCCS(=O)(=O)Nc1cccc(-c2nc(C(C)(C)C)sc2-c2ccnc(NCC(C)(C)C3CCN(CC4CCN(c5ccc([C@H]6CCC(=O)NC6=O)cc5)CC4)CC3)n2)c1F` [Compound 144, N-[3-(2-tert-butyl-5-{2-[(2-{1-[(1-{4-[(3R)-2,6-dioxopiperidin-3-yl]phenyl}piperidin-4-yl)methyl]piperidin-4-yl}-2-methylpropyl)amino]pyrimidin-4-yl}-1,3-thiazol-4-yl)-2-fluorophenyl]propane-1-sulfonamide] showed a DC50 of 0.05 to 0.5 µM and a maximal degradation (Dmax) of 30 to 70%.

`CCCS(=O)(=O)Nc1cccc(-c2nc(C(C)(C)C)sc2-c2ccnc(Nc3ccc(C4CCN(C(=O)CCCC(=O)N[C@H](C(=O)N5C[C@H](O)C[C@H]5C(=O)N[C@@H](C)c5ccc(-c6scnc6C)cc5)C(C)(C)C)CC4)cc3)n2)c1F` [Compound 86, (2S,4R)-1-[(2S)-2-[5-(4-{4-[(4-{2-tert-butyl-4-[2-fluoro-3-(propane-1-sulfonamido)phenyl]-1,3-thiazol-5-yl}pyrimidin-2-yl)amino]phenyl}piperidin-1-yl)-5-oxopentanamido]-3,3-dimethylbutanoyl]-4-hydroxy-N-[(1S)-1-[4-(4-methyl-1,3-thiazol-5-yl)phenyl]ethyl]pyrrolidine-2-carboxamide] had a DC50 of 0.05 to 0.5 µM and a Dmax of 30 to 70%.

`CCCS(=O)(=O)Nc1cccc(-c2nc(C3CCN(C(=O)C4CCN(C(=O)CC5CCN(c6ccc(NC7CCC(=O)NC7=O)cc6)CC5)CC4)CC3)sc2-c2ccncn2)c1F` (racemic) [Compound 184, Rac-N-(3-{2-[1-(1-{2-[1-(4-{[(3R)-2,6-dioxopiperidin-3-yl]amino}phenyl)piperidin-4-yl]acetyl}piperidine-4-carbonyl)piperidin-4-yl]-5-(pyrimidin-4-yl)-1,3-thiazol-4-yl}-2-fluorophenyl)propane-1-sulfonamide]: the DC50 was less than 0.01 µM and the maximal degradation (Dmax) is more than 70%.

The molecule `CCCS(=O)(=O)Nc1cccc(-c2nc(C(C)(C)C)sc2-c2ccnc(Nc3cccc(OC4CCN(C(=O)CN5CCN(c6cc(C7CCC(=O)NC7=O)ccn6)CC5)CC4)c3)n2)c1F` (racemic) [Compound 93, Rac-N-{3-[2-tert-butyl-5-(2-{[3-({1-[2-(4-{4-[(3R)-2,6-dioxopiperidin-3-yl]pyridin-2-yl}piperazin-1-yl)acetyl]piperidin-4-yl}oxy)phenyl]amino}pyrimidin-4-yl)-1,3-thiazol-4-yl]-2-fluorophenyl}propane-1-sulfonamide] had a DC50 of 0.01 to 0.05 µM and a Dmax of 30 to 70%.

`CCCS(=O)(=O)Nc1cccc(-c2nc(C(C)(C)C)sc2-c2ccnc(Nc3cccc(C4CCN(C(=O)[C@@H]5CCN(c6ccc(C7CCC(=O)NC7=O)cn6)C5)CC4)c3)n2)c1F` (mixture of isomers) [Compound 102, N-[3-(2-tert-butyl-5-{2-[(3-{1-[(3R)-1-{5-[(3RS)-2,6-dioxopiperidin-3-yl]pyridin-2-yl}pyrrolidine-3-carbonyl]piperidin-4-yl}phenyl)amino]pyrimidin-4-yl}-1,3-thiazol-4-yl)-2-fluorophenyl]propane-1-sulfonamide] came in with a DC50 of 0.01 to 0.05 µM and a Dmax of 30 to 70%.

For `CCCS(=O)(=O)Nc1cccc(-c2nc(C(C)(C)C)sc2-c2ccnc(Nc3ccc(N4CCN(C(=O)[C@H]5CC[C@H](Oc6ccc(C7CCC(=O)NC7=O)cn6)CC5)CC4)c(F)c3)n2)c1F` (mixture of isomers) [Compound 50, N-[3-(2-tert-butyl-5-{2-[(3-fluoro-4-{4-[(1r,4r)-4-({5-[(3RS)-2,6-dioxopiperidin-3-yl]pyridin-2-yl}oxy)cyclohexanecarbonyl]piperazin-1-yl}phenyl)amino]pyrimidin-4-yl}-1,3-thiazol-4-yl)-2-fluorophenyl]propane-1-sulfonamide], the DC50 is 0.01 to 0.05 µM and the Dmax was more than 70%.

In turn, `CCCS(=O)(=O)Nc1cccc(-c2cn(-c3ccc(N4CCN(CC5CCN(c6ccc(C7CCC(=O)NC7=O)cn6)CC5)CC4)cc3)nc2-c2ccncc2)c1F` (racemic) [Compound 20, Rac-N-{3-[1-(4-{4-[(1-{5-[(3R)-2,6-dioxopiperidin-3-yl]pyridin-2-yl}piperidin-4-yl)methyl]piperazin-1-yl}phenyl)-3-(pyridin-4-yl)-1H-pyrazol-4-yl]-2-fluorophenyl}propane-1-sulfonamide] showed a DC50 of 0.01 to 0.05 µM and a maximal degradation (Dmax) of more than 70%.

`CCCS(=O)(=O)Nc1cccc(-c2nc(C3CCN(C(=O)C4CCN(C(=O)C5CCN(c6ccc(C7CCC(=O)NC7=O)cc6)CC5)CC4)CC3)sc2-c2ccncn2)c1F` (racemic) [Compound 199, Rac-N-[3-(2-{1-[1-(1-{4-[(3R)-2,6-dioxopiperidin-3-yl]phenyl}piperidine-4-carbonyl)piperidine-4-carbonyl]piperidin-4-yl}-5-(pyrimidin-4-yl)-1,3-thiazol-4-yl)-2-fluorophenyl]propane-1-sulfonamide] came in with a DC50 of less than 0.01 µM and a maximal degradation (Dmax) of more than 70%.

`CCCS(=O)(=O)Nc1cccc(-c2nc(C(C)(C)C)sc2-c2ccnc(Nc3cnn(C4CCN(CC[C@@H]5CCN(c6ccc(C7CCC(=O)NC7=O)cn6)C5)CC4)c3)n2)c1F` (mixture of isomers) [Compound 78, N-{3-[2-tert-butyl-5-(2-{[1-(1-{2-[(3R)-1-{5-[(3RS)-2,6-dioxopiperidin-3-yl]pyridin-2-yl}pyrrolidin-3-yl]ethyl}piperidin-4-yl)-1H-pyrazol-4-yl]amino}pyrimidin-4-yl)-1,3-thiazol-4-yl]-2-fluorophenyl}propane-1-sulfonamide]: the DC50 fell in the range of 0.01 to 0.05 µM and the maximal degradation (Dmax) was more than 70%.

Molecule `CCCS(=O)(=O)Nc1cccc(-c2nc(C(C)(C)C)sc2-c2ccnc(Nc3cnn(CC4CCN(C(=O)C5CCN(c6ccc(C(=O)NC7CCC(=O)NC7=O)nc6)CC5)CC4)c3)n2)c1F` (racemic) [Compound 115, Rac-5-{4-[4-({4-[(4-{2-tert-butyl-4-[2-fluoro-3-(propane-1-sulfonamido)phenyl]-1,3-thiazol-5-yl}pyrimidin-2-yl)amino]-1H-pyrazol-1-yl}methyl)piperidine-1-carbonyl]piperidin-1-yl}-N-[(3R)-2,6-dioxopiperidin-3-yl]pyridine-2-carboxamide] returned a DC50 of 0.05 to 0.5 µM and a Dmax of 30 to 70%.

Turning to `CCCS(=O)(=O)Nc1cccc(-c2nc(C(C)(C)C)sc2-c2ccnc(Nc3cccc(OC4CCN(C(=O)[C@H]5CC[C@H](Oc6ccc(C7CCC(=O)NC7=O)cc6)CC5)CC4)c3)n2)c1F` (mixture of isomers) [Compound 98, N-{3-[2-tert-butyl-5-(2-{[3-({1-[(1r,4r)-4-{4-[(3RS)-2,6-dioxopiperidin-3-yl]phenoxy}cyclohexanecarbonyl]piperidin-4-yl}oxy)phenyl]amino}pyrimidin-4-yl)-1,3-thiazol-4-yl]-2-fluorophenyl}propane-1-sulfonamide], the DC50 lay within 0.01 to 0.05 µM and the Dmax was 30 to 70%.

The molecule `CCCS(=O)(=O)Nc1cccc(-c2nc(-c3ccc(C4CCN(C(=O)C5CCN(c6ccc(C7CCC(=O)NC7=O)cn6)CC5)CC4)cc3)sc2-c2ccnc(N)n2)c1F` (racemic) [Compound 201, Rac-N-{3-[5-(2-aminopyrimidin-4-yl)-2-{4-[1-(1-{5-[(3R)-2,6-dioxopiperidin-3-yl]pyridin-2-yl}piperidine-4-carbonyl)piperidin-4-yl]phenyl}-1,3-thiazol-4-yl]-2-fluorophenyl}propane-1-sulfonamide] gave a DC50 of 0.01 to 0.05 µM and a Dmax of 30 to 70%.
